# Results published in paper PMC11869560, “Anticancer and cancer preventive activities of shogaol and curcumin from Zingiberaceae family plants in KG-1a leukemic stem cells” (BMC Complementary Medicine and Therapies, 2025).
# Experiments:
# [1] = test system: TAZ protein expression in KG-1a cells; test: TAZ protein expression in KG-1a cells by Western blotting; format: cell-based, human; conditions: IC50 concentrations, 0–12 h
# Method: (§1) KG-1a cells (1.5 × 10^5 cells/mL) were treated with compounds or extracts at different incubation times. Then, the cells were harvested and the whole proteins were extracted using a RIPA buffer (25 mM Tris-base, pH 7.6, 0.1% SDS, 1% Triton X-100, 150 mM NaCl, and 1 mM EDTA). The protein concentration was measured using the Folin-Lowry or Bradford assay. The whole protein lysates (30 µg/lane) were then separated through 7.5% SDS-PAGE under reducing conditions and then transferred to PVDF membranes. The membranes were blocked in 5% skim milk in PBS, pH 7.4 at RT for 2 h, then, target proteins were probed with specific primary antibodies (anti-WT1, anti-CD34, anti-GAPDH, anti-cleaved caspase-3, anti-cleaved PARP, anti-phospho-Akt, anti-phospho-c-Jun, anti-phospho-SAPK/JNK, and anti-YAP/TAZ) indicated in Table S10 which diluted at a ratio of 1:1,000 in PBS, pH 7.4 at RT for 2 h. After incubation, the membranes were rinsed 6 times with 0.1% Tween-20 (Sigma-Aldrich, MA, USA) in PBS, pH 7.4 (PBS-T), each time for 5 min. […] Finally, the protein band signal was quantified by using a scan densitometer (Bio-Rad Laboratories, CA, USA).
# KG-1a cells [2] = test: Trypan blue exclusion test, cell numbers of KG-1a cells; format: cell-based, human; conditions: IC20 concentrations, 48 h
# Method: (§2) This test was used to confirm the cytotoxicity of the test samples. The cancer cells after exposure to crude ethanolic extracts and active compounds for 48 h were harvested and washed with ice-cold PBS, pH 7.4 for 3 times. Then, the cells were resuspended with PBS, pH 7.4. The cell suspensions were diluted with PBS, pH 7.4 at the appropriate dilution before being mixed with 0.2% trypan blue solution at 1:2 dilution for cell count on a hemocytometer. From this test, the viable cells and the dead cells could also be obviously detected.
# as §2, with “crude ethanolic extracts and active compounds. KG-1a” for “the test samples. The cancer”
# KG-1a cells [3] = test: Cell death analysis by PI staining and flow cytometry in KG-1a cells; format: cell-based, human; conditions: nocodazole 5–120 ng/mL, shogaol 6–9 µg/mL, curcumin various concentrations; time course
# Method: Additionally, PI staining was used to investigate the cytotoxicity of the active compounds. KG-1a cells after exposure to the active compounds with various concentration were harvested at different incubation times and washed with ice-cold PBS, pH 7.4 for 2 times. Then, the cells were resuspended with PI in PBS, pH 7.4 at a ratio of 1:10,000. The percentage of dead cells was detected by flow cytometry (CytoFLEX S, Beckman Coulter, CA, USA) and analyzed by CytExpert program (Beckman Coulter, CA, USA).
# [4] = test system: IL-2 production in PHA-activated PBMCs; test: IL-2 production in PHA-activated PBMCs (ELISA); format: cell-based, human; conditions: IC20 concentration, 2 h pre-treatment then 20 µL/mL PHA 24 h
# Method: For the measurement of interleukin-2 (IL-2), human PBMCs were pre-treated with plant extracts and active compounds at the IC20 concentration (Table S9) or 1 µg/mL of dexamethasone (positive control) in a 24-well plate for 2 h. Subsequently, 20 µL/mL of phytohemagglutinin (PHA) (Cat. No. 10576015, Thermo Fisher Scientific, MA, USA) was added to each well, and the cells were incubated for an additional 24 h. After that, supernatants were collected, and the levels of IL-2 were measured by the Human IL-2 Uncoated ELISA Kit (Invitrogen™, ThermoFisher Scientific, MA, USA), according to the manufacturer’s instructions.
# The percentage of NO or cytokine inhibitions were calculated using the following equation: […]
# where A is the level of cytokine or NO without treatment, and B is the level of cytokine or NO with treatment.
# RAW264.7 cells = test: Cytotoxicity (IC20, cell viability) in RAW264.7 cells; format: cell-based; conditions: Mus musculus, RAW264.7; incubation for 48 h; read-out: IC20 RAW264.7 (inhibitory concentration at 20% growth)
# Method: MTT (3-(4,5-dimethylthiazol-2-yl)-2,5-diphenyltetrazolium bromide) assay was used to investigate the cytotoxicity of the test samples. […] After that, 5 mg/mL of MTT dye solution (Sigma-Aldrich, MA, USA) was added and incubated for 4 h. The produced formazan crystals were dissolved in 200 μL of DMSO (Sigma-Aldrich, MA, USA); then, the optical density (OD) was measured using an ELISA plate reader ([…], Taiwan) at 578 nm with a reference wavelength of 630 nm. The percentage of surviving cells was calculated from the absorbance values of the test and control wells using the following Equation. 1 [drawing 1] […] Afterward, supernatants were collected, and the levels of TNF-α and NO were measured using the Mouse TNF alpha Uncoated ELISA Kit (InvitrogenTM, ThermoFisher Scientific, MA, USA) and the Total Nitric Oxide Assay Kit (InvitrogenTM, ThermoFisher Scientific, MA, USA), respectively, according to the manufacturer's instructions.
# [5] = test system: cleaved caspase-3 and PARP in KG-1a cells; test: Cleaved caspase-3 and cleaved PARP in KG-1a cells by Western blotting; format: cell-based, human; conditions: IC50 concentrations (curcumin 10 µg/mL, shogaol 3 µg/mL, nocodazole 10 ng/mL), 0–12 h
# Method: (§3) KG-1a cells (1.5 × 10^5 cells/mL) were treated with compounds or extracts at different incubation times. Then, the cells were harvested and the whole proteins were extracted using a RIPA buffer (25 mM Tris-base, pH 7.6, 0.1% SDS, 1% Triton X-100, 150 mM NaCl, and 1 mM EDTA). The protein concentration was measured using the Folin-Lowry or Bradford assay. The whole protein lysates (30 µg/lane) were then separated through 7.5% SDS-PAGE under reducing conditions and then transferred to PVDF membranes. The membranes were blocked in 5% skim milk in PBS, pH 7.4 at RT for 2 h, then, target proteins were probed with specific primary antibodies (anti-WT1, anti-CD34, anti-GAPDH, anti-cleaved caspase-3, anti-cleaved PARP, anti-phospho-Akt, anti-phospho-c-Jun, anti-phospho-SAPK/JNK, and anti-YAP/TAZ) indicated in Table S10 which diluted at a ratio of 1:1,000 in PBS, pH 7.4 at RT for 2 h. After incubation, the membranes were rinsed 6 times with 0.1% Tween-20 (Sigma-Aldrich, MA, USA) in PBS, pH 7.4 (PBS-T), each time for 5 min. The reaction was followed by HRP-conjugated secondary antibody at 1:20,000 dilution in PBS, pH 7.4 at RT for 2 h, then, the membranes were rinsed 6 times for 5 min each with PBS-T. The proteins were shown using Immobilon Forte Western HRP substrate (Millipore, MA, USA). Finally, the protein band signal was quantified by using a scan densitometer (Bio-Rad Laboratories, CA, USA).
# [6] = test system: p-Akt (S473) in KG-1a cells; test: p-Akt (S473) in KG-1a cells by Western blotting; format: cell-based, human; conditions: IC50 concentration, 6 h
# Method: as §1, with “USA). […]” for “USA).”
# [7] = test system: CD34 protein expression in KG-1a cells; test: CD34 protein expression in KG-1a cells by Western blotting; format: cell-based, human; conditions: IC20 concentrations, 48 h, normalized to GAPDH
# Method: as §3
# [8] = test system: p-c-Jun and p-SAPK/JNK in KG-1a cells; test: p-c-Jun and p-SAPK/JNK in KG-1a cells by Western blotting; format: cell-based, human; conditions: IC50 concentration, 6 h
# Method: as §1, with “USA). […]” for “USA).”
SMILES,effect on TAZ protein abundance [1],decrease of total cell number compared to VC (KG-1a cells [2]),normalized viable cell counts (KG-1a cells [2]),induction of cell death (PI staining) (KG-1a cells [3]),inhibition of IL-2 release [4],IC20 (RAW264.7 cells),time to activation of cleaved caspase-3 and PARP [5],p-Akt (S473) level compared to VC [6],decrease of CD34 protein level compared to VC [7],p-c-Jun and p-SAPK/JNK levels compared to VC [8]
"CCCCC/C=C/C(=O)CCc1ccc(O)c(OC)c1 [Shogaol, shogaol]",no significant change in its abundance was observed,35.32 ± 6.10%,976.13 ± 13.69 × 10^3 cells per 1 million total cells,notably induced cell death at 6 h,80.04 ± 4.82%,2.71 ± 0.62 µg/mL,3 h,decreased,35.93 ± 3.70%,increased
"COc1cc(/C=C/C(=O)CC(=O)/C=C/c2ccc(O)c(OC)c2)ccc1O [Curcumin, curcumin]",no significant change in its abundance was observed,40.75 ± 12.78%,954.40 ± 3.19 × 10^3 cells per 1 million total cells,gradually induced cell death after 12 h of incubation,–,2.08 ± 0.15 µg/mL,6 h,decreased,29.29 ± 2.43%,increased
